Starred links: 1 amine or outer side, 2 acyl side, 3 side chain; linkers in the order of their positions; H or OH if unused. Positions of bridges follow the written chain, without caps; N, C: chain ends. Non-standard residues stand in square brackets, D forms with d. Residues, ends and D or L forms follow the SMILES beside them. *: point of attachment. X7 = O=C(O)CN1CCN(CC(=O)O)CCN(CC(=O)NCCOCCOCCOCCOCCOCCOCCOCCOCC(=O)*)CCN(CC(=O)O)CC1; X9 = CC(=O)N[C@@H](CCC(C)C)C(O)N([C@@H](Cc1ccc(O)cc1)C(=O)[*:2])[*:1]; Ala(piperidin-4-yl) = O=C([C@H](CC1CCN([*:3])CC1)N[*:1])[*:2]; DOTA = O=C(O)CN1CCN(CC(=O)O)CCN(CC(=O)*)CCN(CC(=O)O)CC1; Trp(5-F) = N[C@@H](Cc1c[nH]c2ccc(F)cc12)C(=O)O; 1Nal = N[C@@H](Cc1cccc2ccccc12)C(=O)O; Ala(4-THP) = N[C@@H](CC1CCOCC1)C(=O)O; Phe(2-F) = N[C@@H](Cc1ccccc1F)C(=O)O; AEF = NCCOc1ccc(C[C@H](N)C(=O)O)cc1; Val(3-OH) = CC(C)(O)[C@H](N)C(=O)O; 4Pal = N[C@@H](Cc1ccncc1)C(=O)O; Abu(4-CN) = N#CCC[C@H](N)C(=O)O; Cha = N[C@@H](CC1CCCCC1)C(=O)O; Tle = CC(C)(C)[C@H](N)C(=O)O; hLeu = CC(C)CC[C@H](N)C(=O)O; NMeS = CN[C@@H](CO)C(=O)O; Pip = O=C(O)[C@@H]1CCCCN1; Nle = CCCC[C@H](N)C(=O)O; Dab = NCC[C@H](N)C(=O)O

The target in this assay is T1, human 4lg B7-H3 (Homo sapiens, UniProt Q5ZPR3).
T1 sequence (Q5ZPR3 29-534): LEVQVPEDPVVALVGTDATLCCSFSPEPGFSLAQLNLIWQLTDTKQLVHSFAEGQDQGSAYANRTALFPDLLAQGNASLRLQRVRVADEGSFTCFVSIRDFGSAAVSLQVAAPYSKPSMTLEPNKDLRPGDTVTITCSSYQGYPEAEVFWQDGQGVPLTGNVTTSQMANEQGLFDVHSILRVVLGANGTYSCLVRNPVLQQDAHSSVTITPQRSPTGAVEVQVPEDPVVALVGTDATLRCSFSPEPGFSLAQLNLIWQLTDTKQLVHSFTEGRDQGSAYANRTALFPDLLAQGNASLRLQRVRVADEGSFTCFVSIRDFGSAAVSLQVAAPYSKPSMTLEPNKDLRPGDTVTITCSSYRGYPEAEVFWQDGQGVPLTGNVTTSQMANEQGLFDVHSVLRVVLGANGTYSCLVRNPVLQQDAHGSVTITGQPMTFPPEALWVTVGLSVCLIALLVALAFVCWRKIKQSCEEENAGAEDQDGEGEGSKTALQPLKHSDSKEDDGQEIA
Put plainly: Affinity determination by surface plasmon resonance (SPR) to 4Ig B7-H3. The settings on record: 4Ig B7-H3.

Setting [1] is: SPR KD—25° C., 25° C. flow cell temperature.
Setting [2] is: SPR KD—37° C., 37° C. flow cell temperature.

As for `CC(=O)N[C@@H](CCC(C)C)C(=O)N[C@@H](Cc1ccc(O)cc1)C(=O)N[C@H]1CSSC[C@@H](C(=O)N[C@@H](Cc2c[nH]c3ccccc23)C(=O)N[C@@H](Cc2ccccc2)C(=O)N[C@H](C(=O)N[C@H](CCCCNC(=O)CN2CCN(CC(=O)O)CCN(CC(=O)O)CCN(CC(=O)O)CC2)C(N)=O)C(C)(C)O)NC(=O)[C@H](Cc2ccc(O)cc2)NC(=O)[C@H](C(C)C)NC(=O)[C@H](CC(=O)O)NC(=O)[C@H](Cc2ccc(O)cc2)NC(=O)[C@H](CCCCN)NC(=O)CNC(=O)[C@H](C(C)C)NC1=O` [compound 149, Ac-hLeu-Y-C-V-G-K-Y-D-V-Y-C-W-F-hydroxyVal-dLys(DOTA)-CONH2] (Ac-[hLeu]YCVGKYDVYCWF[Val(3-OH)][dK](DOTA)-NH2; disulfide 3-11), the Kd under setting [1] is less than 1 nM.
Same read-out and setting: for `CCCC[C@H](NC(C)=O)C(=O)N[C@@H](Cc1ccc(O)cc1)C(=O)N[C@H]1CSSC[C@@H](C(=O)N[C@@H](Cc2c[nH]c3ccccc23)C(=O)N[C@@H](Cc2ccccc2)C(=O)N[C@H](C(=O)N[C@H](CCCCNC(=O)CN2CCN(CC(=O)O)CCN(CC(=O)O)CCN(CC(=O)O)CC2)C(N)=O)[C@@H](C)O)NC(=O)[C@H](Cc2ccc(O)cc2)NC(=O)[C@H](C(C)C)NC(=O)[C@H](CC(=O)O)NC(=O)[C@H](Cc2ccc(O)cc2)NC(=O)[C@H](CCCCNC(C)=O)NC(=O)CNC(=O)[C@H](C(C)C)NC1=O` [compound 65, Ac-Nle-Y-C-V-G-Lys(Ac)-Y-D-V-Y-C-W-F-Thr-dLys(DOTA)-CONH2] (Ac-[Nle]YCVGK(Ac)YDVYCWFT[dK](DOTA)-NH2; disulfide 3-11) the value was 10 to 100 nM; for `CC(=O)N[C@@H](CCC(C)C)C(O)N[C@@H](Cc1ccc(O)cc1)C(=O)N[C@H]1CSSC[C@@H](C(=O)N[C@@H](Cc2cccc3ccccc23)C(=O)N[C@@H](Cc2ccccc2)C(=O)N2CCC[C@H]2C(=O)N[C@H](CCCCNC(=O)COCCOCCOCCOCCOCCOCCOCCOCCNC(=O)CN2CCN(CC(=O)O)CCN(CC(=O)O)CCN(CC(=O)O)CC2)C(N)=O)NC(=O)[C@H](Cc2ccc(O)cc2)NC(=O)[C@H](C(C)C)NC(=O)[C@H](CC(=O)O)NC(=O)[C@H](CC2CCCCC2)NC(=O)[C@H](CC2CCNCC2)NC(=O)CNC(=O)[C@H](C(C)(C)C)NC1=O` (stereo partly drawn) [compound 281, Ac-hLeu-Y-C-Tbg-G-PipAla-CHA-D-V-Y-C-1Nal-F-Pro-dLys(PEG8-DOTA)-CONH2] (H-[X9]C[Tle]G[Ala(piperidin-4-yl)][Cha]DVYC[1Nal]FP[dK](X7)-NH2; disulfide 2-10), 1 to 10 nM.
Still for that read-out and setting: under `CC(=O)N[C@@H](CCC(C)C)C(=O)N[C@@H](Cc1ccc(O)cc1)C(=O)N[C@H]1CSSC[C@@H](C(=O)N[C@@H](Cc2cccc3ccccc23)C(=O)N[C@@H](Cc2ccccc2)C(=O)N(C)[C@@H](CO)C(=O)N[C@H](CCCCNC(=O)CN2CCN(CC(=O)O)CCN(CC(=O)O)CCN(CC(=O)O)CC2)C(N)=O)NC(=O)[C@H](CCC#N)NC(=O)[C@H](C(C)C)NC(=O)[C@H](CC(=O)O)NC(=O)[C@H](Cc2ccncc2)NC(=O)[C@H](CCCCN)NC(=O)CNC(=O)[C@H](C(C)(C)C)NC1=O` [compound 221, Ac-hLeu-Y-C-Tbg-G-K-4PyA-D-V-CyanoButric-C-1Nal-F-NMeSer-dLys(DOTA)-CONH2] (Ac-[hLeu]YC[Tle]GK[4Pal]DV[Abu(4-CN)]C[1Nal]F[NMeS][dK](DOTA)-NH2; disulfide 3-11) stands 100 to 300 nM.
As for `CC(=O)N[C@@H](CCC(C)C)C(=O)N[C@@H](Cc1ccc(O)cc1)C(=O)N[C@H]1CSSC[C@@H](C(=O)N[C@@H](Cc2c[nH]c3ccc(F)cc23)C(=O)N[C@@H](Cc2ccccc2)C(=O)N[C@H](C(=O)N[C@H](CCCCNC(=O)CN2CCN(CC(=O)O)CCN(CC(=O)O)CCN(CC(=O)O)CC2)C(=O)O)C(C)(C)O)NC(=O)[C@H](Cc2ccc(O)cc2)NC(=O)[C@H](C(C)C)NC(=O)[C@H](CC(=O)O)NC(=O)[C@H](CC2CCOCC2)NC(=O)[C@@H]2CCCCN2C(=O)CNC(=O)[C@H](C(C)(C)C)NC1=O` [compound 350, Ac-hLeu-Y-C-Tbg-G-Pip-ThpA-D-V-Y-C-5FW-F-hydroxyVal-dLys(DOTA)-COOH] (Ac-[hLeu]YC[Tle]G[Pip][Ala(4-THP)]DVYC[Trp(5-F)]F[Val(3-OH)][dK](DOTA)-OH; disulfide 3-11), the Kd under setting [2] lay in the range of 10 to 100 nM.
Compound `CCCC[C@H](NC(C)=O)C(=O)N[C@@H](Cc1ccc(O)cc1)C(=O)N[C@H]1CSSC[C@@H](C(=O)N[C@@H](Cc2c[nH]c3ccccc23)C(=O)N[C@@H](Cc2ccccc2)C(=O)N[C@@H](CCCCN)C(=O)N[C@H](CCCCNC(=O)CN2CCN(CC(=O)O)CCN(CC(=O)O)CCN(CC(=O)O)CC2)C(N)=O)NC(=O)[C@H](Cc2ccc(O)cc2)NC(=O)[C@H](C(C)C)NC(=O)[C@H](CC(=O)O)NC(=O)[C@H](Cc2ccc(O)cc2)NC(=O)[C@H](CCCCN)NC(=O)CNC(=O)[C@H](C(C)C)NC1=O` [compound 86, Ac-Nle-Y-C-V-G-K-Y-D-V-Y-C-W-F-Lys-dLys(DOTA)-CONH2] (Ac-[Nle]YCVGKYDVYCWFK[dK](DOTA)-NH2; disulfide 3-11) showed a dissociation constant (Kd) under setting [1] of 10 to 100 nM.
Take `CC(=O)N[C@@H](CCC(C)C)C(=O)N[C@@H](Cc1ccc(O)cc1)C(=O)N[C@H]1CSSC[C@@H](C(=O)N[C@@H](Cc2c[nH]c3ccccc23)C(=O)N[C@@H](Cc2ccccc2)C(=O)N[C@H](C(=O)N[C@H](C)C(N)=O)[C@@H](C)O)NC(=O)[C@H](Cc2ccc(O)cc2)NC(=O)[C@H](C(C)C)NC(=O)[C@H](CC(=O)O)NC(=O)[C@H](Cc2ccc(OCCNC(=O)CN3CCN(CC(=O)O)CCN(CC(=O)O)CCN(CC(=O)O)CC3)cc2)NC(=O)[C@H](CCCCN)NC(=O)CNC(=O)[C@H](C(C)C)NC1=O` [compound 136, Ac-hLeu-Y-C-V-G-K-AEF(DOTA)-D-V-Y-C-W-F-Thr-dAla-CONH2] (Ac-[hLeu]YCVGK[AEF](DOTA)DVYCWFT[dA]-NH2; disulfide 3-11): the dissociation constant (Kd) under setting [2] was less than 1 nM.
Under setting [1], `CCCC[C@H](NC(C)=O)C(=O)N[C@@H](Cc1ccc(O)cc1)C(=O)N[C@H]1CSSC[C@@H](C(=O)N[C@@H](Cc2c[nH]c3ccccc23)C(=O)N[C@@H](Cc2ccccc2)C(=O)N[C@H](C(=O)N[C@H](CCCCNC(=O)CN2CCN(CC(=O)O)CCN(CC(=O)O)CCN(CC(=O)O)CC2)C(N)=O)[C@@H](C)O)NC(=O)[C@H](Cc2ccc(O)cc2)NC(=O)[C@H](C(C)C)NC(=O)[C@H](CCN)NC(=O)[C@H](Cc2ccc(O)cc2)NC(=O)[C@H](CCCCN)NC(=O)CNC(=O)[C@H](C(C)C)NC1=O` [compound 552, Ac-Nle-Y-C-V-G-K-Y-Dab-V-Y-C-W-F-Thr-dLys(DOTA)-CONH2] (Ac-[Nle]YCVGKY[Dab]VYCWFT[dK](DOTA)-NH2; disulfide 3-11) displayed a Kd of 10 to 100 nM.
For the compound `CC(=O)N[C@@H](CCC(C)C)C(=O)N[C@@H](Cc1ccc(O)cc1)C(=O)N[C@H]1CSSC[C@@H](C(=O)N[C@@H](Cc2c[nH]c3ccc(F)cc23)C(=O)N[C@@H](Cc2ccccc2F)C(=O)N[C@H](C(=O)N[C@H](CCCCNC(=O)CN2CCN(CC(=O)O)CCN(CC(=O)O)CCN(CC(=O)O)CC2)C(=O)O)C(C)(C)O)NC(=O)[C@H](Cc2ccc(O)cc2)NC(=O)[C@H](C(C)C)NC(=O)[C@H](CC(=O)O)NC(=O)[C@H](CC2CCOCC2)NC(=O)[C@H](CC2CCNCC2)NC(=O)CNC(=O)[C@H](C(C)(C)C)NC1=O` [compound 470, Ac-hLeu-Y-C-Tbg-G-PipAla-ThpA-D-V-Y-C-5FW-2FPhe-hydroxyVal-dLys(DOTA)-COOH] (Ac-[hLeu]YC[Tle]G[Ala(piperidin-4-yl)][Ala(4-THP)]DVYC[Trp(5-F)][Phe(2-F)][Val(3-OH)][dK](DOTA)-OH; disulfide 3-11), the dissociation constant Kd under setting [2] is less than 1 nM.

Source of the values: patent US20250296959A1, “B7-H3 TARGETING PEPTIDES AND CONSTRUCTS THEREOF” (Mariana Oncology Inc., priority 2024, published 2025).
